In patent publication US20060234911A1, “Method of reversing epithelial mesenchymal transition” (priority 2005, published 2006):

Tests used:
[1] = cited from earlier work
[2] = test system: mTEC-KO cells; test: Reversal of mesenchymal actin cytoskeleton, F-actin phalloidin staining; assay type: cell-based, mouse; conditions: 100 pM TGF-β1 72 h, then inhibitor 24 h; 5 μM SB431542, 1 μM SB203580, 1 μM Y27632, 10 μM U0126, 15 μM SP600125
Procedure: Renal tubular epithelial cells (mTEC-KOs) were treated with 100 pm TGF-β1 for 72 hours and then kinase inhibitors were added for an additional 24 hours. The F-actin in the cells was visualized by staining with phalloidin. mTEC-KO cells were treated with a single kinase inhibitor (A-E) or with SB431542 plus a second kinase inhibitor (F-I). Single kinase inhibitors and concentrations were: 5 μM SB431542 (A), 1 μM SB203580 (B), 1 μM Y27632 (C), 10 μM U0126 (D), or 15 μM SP600125 (E). Combination kinase inhibitors included 5 μM SB431542 with 1 μM SB203580 (F), 1 μM Y27632 (G), 10 μM U0126 (H) or 15 μM SP600125 (I). […] White arrows point to stress fibers.
(§1) Cells were seeded on glass cover slips (Fisher) and cultured as described above. Cells were treated, fixed in 4% paraformaldehyde, and permeabilized in PBS containing 0.1% Triton X-100 for 10 min. Nonspecific sites were blocked with 10% BSA or normal goat serum for 30 min. F-actin was stained at a 1:1000 dilution in 2% BSA of Texas Red-conjugated phalloidin (Sigma) and incubated for 30 min. E-cadherin (BD Biosciences) was diluted at 1:200 in 2% normal goat serum and a secondary antibody (Molecular Probes) at a 1:500 dilution was used for detection. All washes were done in 1× PBS.
To examine the reversibility of the EMT induced by TGF-β1 in mTEC-KO cells, we added inhibitors of kinases previously implicated in EMT. Cells were treated with 100 pM TGF-β1 for 72 hours to induce EMT and kinase inhibitors were added for an additional 24 hours. […] To assess the effects of the kinase inhibitors on EMT, the actin cytoskeleton was examined by phalloidin staining.
Since EMT effects are mediated by multiple cellular pathways and none of the single kinase inhibitors reverted the EMT phenotype, we applied combinations of two inhibitors. […] Cortical actin bordering the cell-cell junctions was restored by both combinations. The addition of either the MEK1 inhibitor or the JNK inhibitor to the […] inhibitor had no detectable effect on the mesenchymal phenotype of the cells (FIGS. 4H and I).

[3] = test system: SM22; test: SM22 mRNA by quantitative RT-PCR after EMT; assay type: cell-based, mouse; conditions: 100 pM TGF-β1 72 h, then inhibitor(s) for an additional 24 hours
Procedure: (§2) FIG. 5: Restoration of epithelial gene expression patterns by kinase inhibitors illustrates a requirement for two kinase inhibitors to restore cadherin expression. mTEC-KO cells were treated with 100 pm TGF-β1 for 72 hours to induce EMT. Single kinase inhibitors or inhibitor combinations were added, cells were grown for an additional 24 hours and harvested for preparation of RNA. Ksp-cadherin (A), SM22 (B), and MMP-9 (C) mRNA levels were measured by quanitative RT-PCR. Significant differences between the untreated (No TGF-β1) cells versus cells treated with TGF-β1 or with TGF-β1 followed by inhibitor are indicated with an asterisk (*) (P<0.05, n=9). Significant differences between single inhibitors versus combination inhibitors are indicated by a letter (a,b,c) over the bar showing the combination. Each letter refers to the single inhibitor in the graph (indicated by the letter below the name of the inhibitor).
(§3) In a six well plate, 50,000 cells were seeded and appropriately treated. Total RNA was isolated using RNAeasy Miniprep kit (Qiagen) and quantified by UV spectrophotometer. 1.5 μg of RNA was converted by reverse transcriptase into cDNA using the OmniScript kit (Qiagen). Primers used for Q-PCR were: KSP-Cadherin forward-5′ CTG CAC ACA GM GTC CCT GA 3′, reverse 5′ CCTTGTCGCCACTAGAAAGC 3′; MMP-9-SuperArray (Frederick, Md.) PPM03661A; SM22 forward 5′GCA GTC CM MT TGA GM GA 3′, reverse 5′ CTGTTGCTGCCCATTTGAAG 3′; PAI-1 forward 5′TTCAGCCCTTGCTTGCCTC 3′, reverse 5′[…] 3′. cDNA was amplified in an Opticon 2 PCR machine (MJ Research) and labeled by the DyNAmo SYBR Green qPCR Kit. The amplification was carried out in the following manner: initial denaturation for 10 min at 95° C., denaturation for 10 sec at 95° C., annealing for 30 sec at the appropriate temperature, and extension for 30 sec at 72° C. Standards were created from Pfu (Stratagene) amplified PCR products purified by gel purification. Glyceraldehyde-3-phosphate dehydrogenase (GAPDH) was used as an internal control to normalize gene expression. […]

[4] = test system: Ksp-cadherin; test: Ksp-cadherin mRNA by quantitative RT-PCR after EMT; assay type: cell-based, mouse; conditions: 100 pM TGF-β1 72 h, then inhibitor(s) for an additional 24 hours
Procedure: In a six well plate, 50,000 cells were seeded and appropriately treated. Total RNA was isolated using RNAeasy Miniprep kit (Qiagen) and quantified by UV spectrophotometer. 1.5 μg of RNA was converted by reverse transcriptase into cDNA using the OmniScript kit (Qiagen). […] 3′. cDNA was amplified in an Opticon 2 PCR machine (MJ Research) and labeled by the DyNAmo SYBR Green qPCR Kit. The amplification was carried out in the following manner: initial denaturation for 10 min at 95° C., denaturation for 10 sec at 95° C., annealing for 30 sec at the appropriate temperature, and extension for 30 sec at 72° C. Standards were created from Pfu (Stratagene) amplified PCR products purified by gel purification. Glyceraldehyde-3-phosphate dehydrogenase (GAPDH) was used as an internal control to normalize gene expression.
The effects of individual or combinations of kinase inhibitors on the expression of several genes altered by EMT were measured by quantitative RT-PCR.

[5] = test system: E-cadherin; test: E-cadherin immunofluorescence at cell junctions after EMT; assay type: cell-based, mouse; conditions: 100 pM TGF-β1 72 h, then inhibitors for an additional 36 hours; 5 μM SB431542, 5 μM SB203580, 5 μM Y27632, 15 μM SP600125
Procedure: FIG. 6: E-cadherin is restored by combining TβRI kinase inhibitor with either the ROCK inhibitor or the p38 MAPK inhibitor. E-cadherin is found between mTEC-KO cells (A). mTEC-KO cells were treated with 100 pM TGF-β1 for 72 hours to induce mesenchymal state in which E-cadherin is lost (B). Single inhibitors or combinations of two inhibitors were added for an additional 36 hours. […] E-cadherin reformed between cells that used combination kinase inhibitors which included 5 μM SB431542 with 5 μM SB203580 (G), 5 μM Y27632 (H), but not 15 μM SP600125 (I). Cell lysates from mTEC-KOs were analyzed by western blot using antibodies to E-cadherin and β-tubulin (J). Control epithelial cells were grown without TGF-β (Lane 3). The cells were then treated for an additional 48 hours with no inhibitor (Lane 2), single inhibitors (5 μM Y27632, Lane 6; 5 μM SB203580, Lane 7; 5 μM SB431542, Lane 8) or with the combination of 5 μM SB431542 with either 15 μM SP600125 (Lane 1), 5 μM Y27632 (Lane 4) or 5 μM SB203580 (Lane 5).
as §1
An important criterion for epithelium restoration is re-expression of the cell-cell junction adhesion protein E-cadherin. mTEC-KO cells were treated with 100pm TGF-β1 for 72 hours to induce EMT and then kinase inhibitors were added for an additional 24-48 hours (FIG. 6).

[6] = test system: MMP-9; test: MMP-9 mRNA by quantitative RT-PCR after EMT; assay type: cell-based, mouse; conditions: 100 pM TGF-β1 72 h, then inhibitor(s) for an additional 24 hours
Procedure: as §2, §3

[7] = test system: mTEC-KO cells; test: Blocking of TGF-β1-induced EMT (cell morphology, phalloidin staining); assay type: cell-based, mouse; conditions: 10 μM SB431542 together with TGF-β1 for 72 hours
Procedure: FIG. 1: TGF-β1 induces EMT in renal tubular epithelial cells. mTEC-KOs were incubated for 72 hours without TGF-β1 (A,D), with 100 pM TGF-β1 (B, E) or with TGF-β1 and 10 μM SB431542. Cell morphology was observed by brightfield phase microscopy at 100× magnification (A-C). […] White arrows point to stress fibers.
TGF-β knockout Murine Renal Epithelial Tubular Cells (mTEC-KO) were maintained in Renal Epithelial Cell Growth Medium (Cambrex, Md.) containing 0.25% Fetal Bovine serum (FBS), supplemented with a Bullet Kit that contained: epidermal growth factor, insulin, hydrocortisone, GA-1000, epinephrine, T3, transferrin (Cambrex), as well as penicillin and streptomycin (Gibco) in a 37° humidified 5% CO2 incubator.
as §1, with “PBS. […]” for “PBS.”

[8] = test system: PAI-1; test: PAI-1 mRNA expression by quantitative RT-PCR in TGFβ-induced mesenchymal cells; assay type: cell-based, mouse; conditions: 100 pM TGF-β1 72 hours, then 5 uM inhibitor for 24 hours
Procedure: TGFβ1 ligand (100 pM) was added to mTEC-KOs for 72 hours, followed by the addition of 5 μM SB431542 plus 100 pM TGFβ1 for an additional time 24 hours. Cell lysates were used to prepare RNA which was examined by quantitative RT-PCR for PAI-1. Significant differences in PAI-1 expression level between cells treated with TGF-β1 alone versus cells treated with TGF-β1 and then with inhibitor for the indicated times are indicated with an asterisk (*) (P<0.05, n=9).
as §3, with “C.” for “C. Standards were created from Pfu (Stratagene) amplified PCR products purified by gel purification. Glyceraldehyde-3-phosphate dehydrogenase (GAPDH) was used as an internal control to normalize gene expression.”

[9] = 300 ug/kg human BMP7 every other day beginning at week three; cited from earlier work
[10] = test system: mouse distal tubular epithelial cells; conditions: 100 ng/ml BMP7 for 48 hours; cited from earlier work

| Molecule | reversal of mesenchymal actin stress fiber morphology, single kinase inhibitor [2] | SM22 mRNA level [3] | Ksp-cadherin mRNA level [4] | E-cadherin at cell junctions (localization) [5] | MMP-9 mRNA level [6] | further results |
| --- | --- | --- | --- | --- | --- | --- |
| HGF: hepatocyte growth factor | – | – | – | – | – | reversal of EMT in vivo [1]: only provided a partial reversal of EMT |
| C[C@@H](N)[C@H]1CC[C@H](C(=O)Nc2ccncc2)CC1 [Y27632] | fail to reverse the mesenchymal actin cytoskeleton | partially reduced SM22 levels | increased Ksp-cadherin to intermediate levels | caused an increase in reforming E-cadherin at cell junctions | increased the level of MMP9 expression | – |
| NC(=O)c1ccc(-c2nc(-c3ccc4c(c3)OCO4)c(-c3ccccn3)[nH]2)cc1 [SB431542] | did not reverse the mesenchymal actin stress fiber morphology | efficiently reduced SM22 and MMP-9 expression to pre-EMT levels | increased Ksp-cadherin to intermediate levels | caused an increase in reforming E-cadherin at cell junctions | efficiently reduced SM22 and MMP-9 expression to pre-EMT levels | TGF-β1-induced transition of epithelial cells into mesenchymal cells [7]: blocked the TGF-β1-induced transition of the mTEC-KO epithelial cells into mesenchymal cells; actin stress fibers (phalloidin) when inhibitor is given with TGF-β1 [7]: very few actin stress fibers were observed; PAI-1 mRNA level [8]: sufficient to reduce the mRNA level |
| N#CC(=C(/N)Sc1ccccc1N)/C(C#N)=C(\N)Sc1ccccc1N [U0126] | fail to reverse the mesenchymal actin cytoskeleton | – | – | – | – | – |
| C[S+]([O-])c1ccc(-c2nc(-c3ccncc3)c(-c3ccc(F)cc3)[nH]2)cc1 (stereo not shown) [SB203580] | fail to reverse the mesenchymal actin cytoskeleton | did not reduce SM22 or MMP9 transcript levels | led to a further decrease in Ksp-cadherin expression | caused an increase in reforming E-cadherin at cell junctions | did not reduce SM22 or MMP9 transcript levels | – |
| BMP7: TGFβ superfamily member that acts through distinct receptors and Smad proteins (protein, UniProt P18075 293-431, looked up) Bone morphogenetic protein 7: STGSKQRSQNRSKTPKNQEALRMANVAENSSSDQRQACKKHELYVSFRDLGWQDWIIAPEGYAAYYCEGECAFPLNSYMNATNHAIVQTLVHFINPETVPKPCCAPTQLNAISVLYFDDSSNVILKKYRNMVVRACGCH | – | – | – | – | – | renal pathology (mortality, renal function) [9]: reversed the renal pathology as indicated by a decline in mortality, and improvement in renal function; reversal of TGF-β1 induced EMT (E-cadherin expression, epithelial morphology) [10]: reversed |
